row,Structure (SMILES),melting point
1,CC(=O)N1CCc2oc3ncccc3c(=O)c2C1,182 to 184 °C
2,CCCCCCCCCCCCCCCCCCOc1ccc(OCCCc2ccccc2)c(C(=O)O)c1,68 to 70 °C
3,CN(C)C[C@H]1CCSc2ccccc2[C@]1(O)c1cccc(O)c1 (racemic),188 to 190 °C
4,CC(C)(C)COC(=O)C(C#N)=Cc1cc(O)c(O)c([N+](=O)[O-])c1,173 to 179 °C
5,O=C(O)[C@H]1CN(c2ccc(C3=CCSCC3)c(F)c2)C(=O)O1,106 to 110 °C
6,COc1cc(COc2cc(NC(C)=O)c(Cl)cc2C(=O)CCCCCl)cc(OC)c1,135 to 137 °C
7,CN1C(=O)N=C(NCc2ccccc2)C1=O,152 to 154 °C
8,CC1(C(=O)O)COc2ccccc2O1 (stereo unspecified),125 to 130 °C
9,C(#Cc1cnc2ccccc2c1)CCN1CCN(c2ccccn2)CC1,76.5 to 77 °C
10,O=C(CNc1c(C(=O)O)[nH]c2cc(Cl)ccc12)c1ccccc1O,198 to 200 °C
11,COc1ccc2c(c1)c(S(=O)(=O)c1ccccc1)cn2CCNCc1ccccc1,98 to 99 °C
12,COc1cccc(Oc2ncccc2C#N)c1,66 to 68 °C
13,O=CC1=Cc2cc(-c3ccccc3)ccc2OC1,108 to 110 °C
14,CCOc1nn(-c2ccc(C(F)(F)F)cn2)cc1CCCOc1cccc(C(C)(C)C(=O)O)c1,131 to 132 °C
15,COc1cn(C(C)C(=O)N(C)C)nc1-c1ccccc1 (stereo unspecified),96.5 to 98 °C
16,COC(=O)CCOc1ccc(C=O)cc1,48 to 50 °C
17,CCCCN(c1nc(N2CCOCC2)nc(N(CCCC)C2CC(C)(C)N(OC3CCCCC3)C(C)(C)C2)n1)C1CC(C)(C)N(OC2CCCCC2)C(C)(C)C1,159 to 163 °C
18,COC1=NC(C)=C(C(=O)OC(C)C)C(c2cccc([N+](=O)[O-])c2)N1C(=O)N(C)Cc1ccccc1 (stereo unspecified),145 to 146 °C
19,CCOCc1nc2c(N)nc3cc(C=O)ccc3c2n1CC(C)(C)O,203 to 205 °C
20,Cc1ccc([N+](=O)[O-])cc1S(=O)(=O)n1nnc2ccccc21,169 to 170 °C
21,COC(=O)C(CC(=O)c1cc(Cl)c(C)c(Cl)c1)OC (stereo unspecified),75 to 78 °C
22,Nc1ccccc1CCc1ccccn1,59 to 61 °C
23,FC(F)(F)c1ccc(CC[C@H]2CNCCN2)cc1,135 to 141 °C
24,CCC(N)=C(C(C)=O)C(=O)N(CCN(C)C)c1ccccc1,103 to 105 °C
25,O=C(CSCc1ccc(F)cc1)NO,115 to 116 °C
26,COc1cc(C(=O)Nc2c(C)cc3cn[nH]c3c2C(=O)NC(C)C)n(-c2ncccc2Cl)n1,148 to 151 °C

row,Structure (SMILES),melting point
1,CCOC(=O)CC1(c2ccccc2)CNC(=O)C1 (stereo unspecified),49 to 51 °C
2,COc1ccc(Cl)cc1-c1c(N)c(=O)[nH]c2cc(Cl)cc(Cl)c12,284 to 287 °C
3,CC1(C)CCC(C)(C)c2cc(C#Cc3ccc(S(C)(=O)=O)cc3)ccc21,153 to 155 °C
4,Cn1c(=O)c(Cl)nc2ccccc21,124 to 130 °C
5,Cc1nn(-c2cc(Oc3ccc(O)cc3)c(Cl)cc2F)c(=O)n1C(F)F,162 °C
6,COc1ccc(C(=O)NCCc2cccs2)cc1,109 to 111 °C
7,CC(C)(C)c1cc(N)n(-c2c(Cl)cc(C(F)(F)F)cc2Cl)n1,110 to 120 °C
8,O=C(O)C=NOC(CCCc1ccc(Cl)cc1)c1ccc(OCc2ccc3ccccc3n2)cc1 (stereo unspecified),174 to 177 °C
9,OCC(CO)CCOc1ccccc1,71 to 73 °C
10,CSc1ccc(C(=O)c2cc(-c3ccccc3)c(N3CCOCC3)s2)cc1,165 °C
11,O=C1c2ccccc2C(=S)N1C1CCC(=S)NC1=S (stereo unspecified),244 °C
12,CCCc1c(OCCCOc2cccc(NC(=O)C(=O)OCC)c2)ccc(C(C)=O)c1O,52 to 57 °C
13,CC(C)(C)C1CCCC(=Cc2ccc(Cl)cc2)C1(O)Cn1cncn1 (stereo unspecified),171 °C
14,CC(CO)Oc1ccc(CNc2ccc(Cl)cc2)cc1 (stereo unspecified),81 to 83 °C
15,CCC(CC)Oc1cc(C)nc2c1NC(=O)CN2c1c(C)cc(C)cc1C,179 to 181 °C
16,CNS(=O)(=O)c1ccc(Oc2ccc(N)cc2)cc1,121 to 122 °C
17,CCCC1=C(C(=O)OCC)C(c2csc3ccccc23)c2c[nH]nc2N1 (stereo unspecified),222 °C
18,CC1(C)CCCN(C2c3cc4nonc4cc3OC(C)(C)C2O)C1=O (stereo unspecified),114 to 115 °C
19,COC(=O)C(C)(Cc1ccc(Cl)nc1)C(=O)OC,80 to 81 °C
20,O=S(=O)(c1ccc(Cl)cc1)c1ccc(Cl)s1,108 °C
21,CC(C#N)c1coc2cc(I)ccc12 (stereo unspecified),71 to 72 °C
22,CCCN(c1ccc(O)c(Cl)c1)S(=O)(=O)c1ccc(O)cc1,138 to 140 °C
23,COc1cccc(N2CCN(C[C@H]3COc4ccc5nc(C)ccc5c4O3)CC2)c1,90 to 91 °C
24,O=C(NCN1CCN(c2ccccc2Cl)CC1)c1ccccc1,145 to 147 °C
25,CC(C)(C)c1ccc(C2C=C(c3ccccc3)NN2c2ccccc2)cc1 (stereo unspecified),150 to 153 °C
26,COc1cc(C=O)ccc1Oc1nc(Nc2cccc(C(=O)O)c2)nc(Oc2ccccc2)n1,218 to 220 °C

row,Structure (SMILES),melting point
1,CNC1(c2ccc(C#CC(=O)Nc3ccc(-c4ccc(Cl)cc4)cc3)cc2)CC1,217 °C
2,COC(=O)[C@H]1CC[C@@H](NC(=O)c2cc(-c3ccc(C#N)cc3)nn(C)c2=O)CC1,190 to 192 °C
3,CC(C)(C)c1cc(C(Cl)Cl)c(Cl)c(C(C)(C)C)c1O,176 to 177 °C
4,CC(=O)c1cccc(-c2nc(Nc3ccc(OC(F)(F)F)cc3)cc(N3CCOCC3)n2)c1,218 to 220 °C
5,CC(=O)Nc1cnc(-c2cc(Cl)ccc2Cl)c(N)n1,152 to 154 °C
6,OC1CCc2c(Br)ccc(Nc3cc(-c4ccc(C(F)(F)F)cc4)ncn3)c2C1 (stereo unspecified),192 °C
7,CC12CCC(C1)C1(C)Oc3ccc(CCOc4ccc(C(=O)O)c(O)c4)cc3C21C (stereo unspecified),212 to 214 °C
8,CCOC(=O)c1c(Cn2cncn2)nc2sc(C)c(C)c2c1-c1ccc(Cl)cc1,144 to 145 °C
9,O=C1N=c2ccc(OCCBr)cc2=N1,225 to 226 °C
10,COc1ccc2cc(-c3csc(-c4ccccc4)n3)ccc2c1,191 to 193 °C
11,COc1cc(OC)c2c(C)c(CCN3CCN(c4cccc(C(F)(F)F)c4)CC3)c(=O)oc2c1,138 to 139 °C
12,CC(=O)N1CCC(Oc2cccc(C(F)(F)F)c2)(c2ccccc2)CC1,100 to 103 °C
13,COc1c(Br)cc(Br)c2ccc(C=Cc3ccccc3)nc12,150 to 152 °C
14,CN(CCN1CCOCC1)c1noc2cc(OC(=O)NCc3ccccc3)ccc12,106 to 107 °C
15,O=S(=O)(NC1CC1)c1cccc(-c2cc(-c3nc(-c4ccc(C(F)(F)F)cc4)cc(C(F)(F)F)n3)ccn2)c1,196 °C
16,O=C(c1cc[nH]c1)c1ccc2ccccc2c1,134 to 136 °C
17,CC#CCNC(=NC#N)SC,180 to 183 °C
18,CC(=O)N(O)Cc1ccccc1Nc1cccc(C)c1C,93 to 98 °C
19,C[C@@H](O)c1nccc(N2CCN(Cc3ccccn3)CC2)n1,68 to 70 °C
20,COCC1CN(c2ccc(C3CCC(=O)CC3)cc2)C(=O)O1 (racemic),114 to 116 °C
21,N#CCCNC(=O)c1cccc(-c2cccc(Oc3ccc4[nH]ccc4c3)n2)c1,150 to 151 °C
22,CS(=O)(=O)Nc1cc([C@@H](O)CNC2CCN(c3ccc(NC(=O)CCC4CCCC4)cc3)CC2)ccc1O,82 to 90 °C
23,CC(C)OC(=O)C1(c2onc(-c3ccc(O)cc3)c2-c2ccccc2)CC1,175 °C
24,COc1cc(C)c(Br)cc1C,38.4 °C
25,CCOCC1(C)CCCSc2cc(/C=C/c3ccc(C(=O)O)cc3)ccc21 (stereo unspecified),186 to 187 °C
26,CNC(=O)Cc1c(-c2ccccc2)nn2cccnc12,211 to 213 °C

row,Structure (SMILES),melting point
1,O=C(O)CCc1cnoc1-c1ccc([N+](=O)[O-])cc1,204 to 205 °C
2,CC(=O)N1C(=O)NC(=O)CC1C (stereo unspecified),107 to 109 °C
3,CCOC(=O)c1c[nH]c(=O)c2cc(Cl)ccc12,243 °C
4,CC(C)c1c(C(=O)Nc2ccccc2)c(-c2ccccc2)c(-c2ccc(F)cc2)n1CCC(O)CC(O)CC(=O)N(c1ccccc1)c1ccccc1 (stereo unspecified),228 to 233 °C
5,Cc1c(Cl)c(Cl)nc2c1NC(=O)c1cccnc1N2C1CC1,> 290 °C
6,OC(CCCl)COc1cccc(C(F)(F)F)c1 (stereo unspecified),50 to 52 °C
7,Cc1c(-c2ccc(Cl)cc2)nc2ccc(C(=O)NC(Cc3ccc(OCc4ccccc4)cc3)C(=O)O)cn12 (stereo unspecified),244 to 245 °C
8,CCCCCCCCCCCC(=O)N[C@H](CC(=O)c1ccc2ccccc2c1)C(=O)OCC,75 to 76 °C
9,CC1(C2CCC3C4CCC5CC=CCC5(C)C4C(=O)CC32C)OCCO1 (stereo unspecified),130 to 135 °C
10,COc1ccccc1-c1cccc(C(c2ccccc2)c2ccccc2)c1O,131 °C
11,Cc1nc2cc(C(O)(c3ccc(Cl)cc3)c3cncn3C)cc3c(-c4cccc(Cl)c4)cc(=O)n1c23 (stereo unspecified),170 °C
12,CC(C)(C)c1cc(CCN=C(O)c2cc(C(O)=NCCc3cc(C(C)(C)C)c(O)c(C(C)(C)C)c3)c(C(=O)O)cc2C(=O)O)cc(C(C)(C)C)c1O,231 to 233 °C
13,Nc1nc(N)nc(CCC(Cl)(Cl)Cl)n1,187 to 188 °C
14,O=c1oc2c(c(O)c1C(c1ccccc1)C1CC1)CCCCCCC2 (stereo unspecified),81.7 to 84 °C
15,O=C(NC(O)C(=O)O)c1c(F)cccc1F (stereo unspecified),125 to 127 °C
16,COc1cccc(N(CC(=O)OC(C)(C)C)C(=O)CN2C(=O)c3ccccc3C2=O)c1,148 °C
17,O=C(O)C1CCCN(C(=O)c2cccc(C(=O)C3CCC4(CCNCC4)CC3)c2)C1 (stereo unspecified),146 to 148 °C
18,Cc1nc(-n2ccc(OCc3ccccn3)cc2=O)sc1C(=O)NCc1ccccc1,202 to 205 °C
19,Cc1cnc(NS(=O)(=O)c2cccc(Cl)c2Cl)c(OCc2ccco2)n1,127 to 129 °C
20,O=C1CCC(=O)N1Nc1c(Cl)cc(Cl)cc1Cl,114 to 115 °C
21,O=[N+]([O-])C=C(NCCCOc1cccc(CN2CCCCC2)c1)NCC(O)c1ccc(F)cc1 (stereo unspecified),135 to 136 °C
22,CCCc1nn(-c2ccc(C(F)(F)F)cn2)cc1CCCCOc1c(CC(=O)O)cccc1OC,111 to 112 °C
23,c1cc2ccc3nnsc3c2cn1,150 to 153 °C

# From a melting point compilation (Tetko et al.; mined from patent text by program, amines drawn as free bases though some values may be those of a salt)
